In ChEMBL document CHEMBL1154267, “Imidazo[1,5-a][1,2,4]-triazolo[1,5-d][1,4]benzodiazepines as potent and highly selective GABAA alpha5 inverse agonists with potential for the treatment of cognitive dysfunction” (Bioorg Med Chem Lett, 2009):
pKi: −log10 of the molar value. In brackets after ≈: the same amount, converted by molar mass. Activity calls are given as the source filed them. The rule behind the calls is not given here.

How the values were obtained:
[1] = biological target: T1, GABA-A receptor; alpha-5/beta-3/gamma-2 (Homo sapiens, UniProt P18507+P28472+P31644); test: Displacement of [3H]flumazenil from GABAA alpha-5-beta-3-gamma-2 receptor; assay type: protein-complex assay
T1 sequence (P18507 whole entry): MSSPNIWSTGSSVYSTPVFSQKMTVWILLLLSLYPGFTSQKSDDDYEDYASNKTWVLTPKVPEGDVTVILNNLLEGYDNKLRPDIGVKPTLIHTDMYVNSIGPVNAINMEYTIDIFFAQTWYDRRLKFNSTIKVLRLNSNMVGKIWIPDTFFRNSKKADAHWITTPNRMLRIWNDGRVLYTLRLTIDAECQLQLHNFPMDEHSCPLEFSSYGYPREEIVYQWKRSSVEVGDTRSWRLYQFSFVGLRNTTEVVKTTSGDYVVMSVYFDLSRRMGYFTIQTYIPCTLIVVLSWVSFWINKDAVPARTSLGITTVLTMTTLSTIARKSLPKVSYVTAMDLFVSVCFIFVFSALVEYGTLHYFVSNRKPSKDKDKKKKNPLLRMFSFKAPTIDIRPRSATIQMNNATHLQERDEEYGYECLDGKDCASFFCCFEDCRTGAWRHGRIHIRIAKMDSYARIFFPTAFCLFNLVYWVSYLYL
T1 sequence (P28472 whole entry): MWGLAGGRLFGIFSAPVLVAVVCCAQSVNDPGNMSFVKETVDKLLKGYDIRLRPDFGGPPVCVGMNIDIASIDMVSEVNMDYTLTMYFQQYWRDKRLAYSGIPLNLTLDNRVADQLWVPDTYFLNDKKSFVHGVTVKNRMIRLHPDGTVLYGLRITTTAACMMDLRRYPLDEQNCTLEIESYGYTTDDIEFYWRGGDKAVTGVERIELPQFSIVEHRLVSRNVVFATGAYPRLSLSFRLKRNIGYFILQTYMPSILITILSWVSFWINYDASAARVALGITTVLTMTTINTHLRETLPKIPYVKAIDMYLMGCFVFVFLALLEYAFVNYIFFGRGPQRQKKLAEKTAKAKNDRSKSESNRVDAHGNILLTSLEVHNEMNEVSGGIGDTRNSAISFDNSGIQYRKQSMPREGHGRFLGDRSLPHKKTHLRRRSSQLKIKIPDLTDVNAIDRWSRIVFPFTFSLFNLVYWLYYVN
T1 sequence (P31644 whole entry): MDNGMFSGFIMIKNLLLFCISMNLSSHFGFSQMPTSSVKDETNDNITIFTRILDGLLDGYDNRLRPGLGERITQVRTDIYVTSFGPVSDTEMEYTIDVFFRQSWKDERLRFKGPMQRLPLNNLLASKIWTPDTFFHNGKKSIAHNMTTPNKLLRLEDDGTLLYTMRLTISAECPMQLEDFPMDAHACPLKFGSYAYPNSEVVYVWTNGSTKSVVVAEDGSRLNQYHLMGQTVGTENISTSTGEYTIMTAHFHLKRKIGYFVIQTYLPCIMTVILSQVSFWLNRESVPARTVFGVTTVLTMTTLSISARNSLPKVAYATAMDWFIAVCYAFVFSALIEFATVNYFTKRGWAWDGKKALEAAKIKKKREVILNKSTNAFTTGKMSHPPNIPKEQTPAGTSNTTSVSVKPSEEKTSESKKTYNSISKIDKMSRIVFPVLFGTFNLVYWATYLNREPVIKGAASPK

[2] = biological target: GABA-A receptor; alpha-5/beta-3/gamma-2 (Homo sapiens) (UniProt P18507+P28472+P31644); test: Inverse agonist activity at GABAA alpha-5-beta-3-gamma-2 receptor assessed as modulation of GABA-induced chloride ion flux by electrophysiology assay relative to GABA; assay type: functional
[3] = Selectivity ratio of Ki for GABAA alpha-1-beta-3-gamma-2 receptor to Ki for GABAA alpha-5-beta-3-gamma-2 receptor
[4] = Selectivity ratio of Ki for GABAA alpha-2-beta-3-gamma-2 receptor to Ki for GABAA alpha-5-beta-3-gamma-2 receptor
[5] = Selectivity ratio of Ki for GABAA alpha-3-beta-3-gamma-2 receptor to Ki for GABAA alpha-5-beta-3-gamma-2 receptor
[6] = Solubility of the compound; assay type: physicochemical
[7] = Lipophilicity, log D at pH 7.4; assay type: physicochemical; settings: buffer
[8] = Permeability by PAMPA; assay type: ADME; settings: read-out: permeability
[9] = system: Liver microsomes; test: Clearance in rat liver microsomes; assay type: ADME, Microsome
[10] = Half life in rat; assay type: ADME, organism-based; settings: in vivo
[11] = Clearance in rat; assay type: ADME, organism-based; settings: in vivo
[12] = Volume of distribution at steady state in rat; assay type: ADME, organism-based; settings: in vivo, read-out: Vdss
[13] = Oral bioavailability in rat; assay type: ADME, organism-based; settings: in vivo
[14] = Ratio of drug level in brain to plasma in rat; assay type: ADME, organism-based; settings: brain and plasma
[15] = system: Rattus norvegicus; test: Behavioral effect in Lister hooded rat assessed as reversal of Scopolamine-induced impairment of working memory at 1 mg/kg, po administered 30 mins before Scopolamine challenge by delayed match to position test; assay type: functional, organism-based; set-up: dose 1 mg/kg
[16] = organism: Rattus norvegicus; test: Toxicity in Lister hooded rat assessed as behavioral impairment; assay type: organism-based; settings: in vivo

Cc1cc(Cc2nc3n(n2)Cc2c(C)ncn2-c2ccc(Cl)cc2-3)on1
pKi [1]: 9.22
Efficacy [2]: -18%
Ratio Ki [3]: 466
Ratio Ki [4]: 251
Ratio Ki [5]: 223
solubility [6]: 14 µg/mL (≈ 38.2 µM)
logD [7]: 2.3
Papp [8]: 3.1 ×10⁻⁶ cm/s
CL [9]: 6000 µL/min/mg
half-life [10]: 1.4 h
clearance [11]: 9.5 mL/min/kg
Vd [12]: 1.8 L/kg
bioavailability [13]: 44%
Kp [14]: 1
Activity [15]: Active
Activity [16]: Non-toxic
